From ChEMBL document CHEMBL1201862, “PubChem BioAssay data set” (2004)
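Grown in 96-well plates, cells were treated for 48 hours with each compound at five concentrations. Insufficient inhibition: endpoint recorded as highest concentration tested. GI50 = concentration required for 50% inhibition of growth.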 Active and inactive are the calls of the source. Cut-off read from the data, not from the text of the source: active = GI50 up to about 1.1 µM and inactive = higher.

Assays:
Assay in all cases: growth of human tumour cells (NCI), 48 h
LOX IMVI = tested on: LOX IMVI
RPMI-8226 = tested on: RPMI-8226
OVCAR-5 = tested on: OVCAR-5
M14 = tested on: M14
A549 = tested on: A549
Malme-3M = tested on: Malme-3M
NCI-H460 = tested on: NCI-H460
HCC 2998 = tested on: HCC 2998
SK-MEL-2 = tested on: SK-MEL-2
OVCAR-8 = tested on: OVCAR-8
UACC-257 = tested on: UACC-257
RXF 393 = tested on: RXF 393
HCT-15 = tested on: HCT-15
NCI-H226 = tested on: NCI-H226
OVCAR-3 = tested on: OVCAR-3
786-0 = tested on: 786-0
HL-60 = tested on: HL-60
TK-10 = tested on: TK-10

Row | Structure (SMILES) | GI50 (LOX IMVI) | GI50 (RPMI-8226) | GI50 (OVCAR-5) | GI50 (M14) | GI50 (A549) | GI50 (Malme-3M) | GI50 (NCI-H460) | GI50 (HCC 2998) | GI50 (SK-MEL-2) | GI50 (OVCAR-8) | GI50 (UACC-257) | GI50 (RXF 393) | GI50 (HCT-15) | GI50 (NCI-H226) | GI50 (OVCAR-3) | GI50 (786-0) | GI50 (HL-60) | GI50 (TK-10)
1 | COc1ccc(-c2onc(-c3c(C)cc(C)cc3C)c2C2=NCCCN2)cc1 | 43.3 µM (inactive) | 23.6 µM (inactive) | > 100 µM (inactive) | 21.1 µM (inactive) | 65.8 µM (inactive) | 41.9 µM (inactive) | 32.1 µM (inactive) | > 100 µM (inactive) | 36.1 µM (inactive) | 58.9 µM (inactive) | 21.1 µM (inactive) | 47.3 µM (inactive) | 39.1 µM | 36.4 µM (inactive) | 57 µM (inactive) | 31.8 µM (inactive) | 15.1 µM (inactive) | –
2 | O=C1[C@@H]2C(c3ccccc3[N+](=O)[O-])=NO[C@@H]2C(=O)N1c1ccc(Cc2ccc(N3C(=O)[C@H]4C(c5ccccc5[N+](=O)[O-])=NO[C@H]4C3=O)cc2)cc1 | > 100 µM (inactive) | > 100 µM (inactive) | > 100 µM (inactive) | > 100 µM (inactive) | – | > 100 µM (inactive) | > 100 µM (inactive) | > 100 µM (inactive) | – | > 100 µM (inactive) | > 100 µM (inactive) | > 100 µM (inactive) | > 100 µM | – | > 100 µM (inactive) | > 100 µM (inactive) | – | > 100 µM (inactive)
3 | COc1ccc(CC(=O)NCCc2ccc(OC)c(OC)c2OC)cc1 | – | > 100 µM (inactive) | > 100 µM (inactive) | > 100 µM (inactive) | 30.1 µM (inactive) | > 100 µM (inactive) | > 100 µM (inactive) | > 100 µM (inactive) | > 100 µM (inactive) | > 100 µM (inactive) | > 100 µM (inactive) | > 100 µM (inactive) | – | > 100 µM (inactive) | – | 41.6 µM (inactive) | – | > 100 µM (inactive)
4 | CCOc1ccc(/N=C(/NC(=O)c2ccccc2)SC)cc1 | > 100 µM (inactive) | > 100 µM (inactive) | > 100 µM (inactive) | > 100 µM (inactive) | > 100 µM (inactive) | > 100 µM (inactive) | > 100 µM (inactive) | > 100 µM (inactive) | > 100 µM (inactive) | > 100 µM (inactive) | > 100 µM (inactive) | > 100 µM (inactive) | > 100 µM | > 100 µM (inactive) | > 100 µM (inactive) | > 100 µM (inactive) | > 100 µM (inactive) | > 100 µM (inactive)
5 | C#CCN(C(=O)C(F)(F)F)c1ccc(C(=O)c2ccc(N(CC#C)C(=O)C(F)(F)F)cc2)cc1 | – | 15.6 µM (inactive) | 49.9 µM (inactive) | 33.2 µM (inactive) | 84.9 µM (inactive) | 32.6 µM (inactive) | 33.8 µM (inactive) | 40.9 µM (inactive) | 33.7 µM (inactive) | 36.1 µM (inactive) | 26.4 µM (inactive) | 35.3 µM (inactive) | 24.6 µM | – | 33.1 µM (inactive) | 34.1 µM (inactive) | 12.9 µM (inactive) | 48.6 µM (inactive)
6 | O=[N+]([O-])c1ccc(/C=N/C2CCCCC2)cc1 | > 100 µM (inactive) | – | > 100 µM (inactive) | > 100 µM (inactive) | > 100 µM (inactive) | > 100 µM (inactive) | > 100 µM (inactive) | > 100 µM (inactive) | > 100 µM (inactive) | > 100 µM (inactive) | > 100 µM (inactive) | > 100 µM (inactive) | > 100 µM | > 100 µM (inactive) | > 100 µM (inactive) | > 100 µM (inactive) | > 100 µM (inactive) | > 100 µM (inactive)
7 | O=S1(=O)OCCOS(=O)(=O)C1(Cl)Cl | 61.4 µM (inactive) | > 100 µM (inactive) | – | > 100 µM (inactive) | > 100 µM (inactive) | > 100 µM (inactive) | – | > 100 µM (inactive) | > 100 µM (inactive) | > 100 µM (inactive) | > 100 µM (inactive) | – | – | 41.1 µM (inactive) | > 100 µM (inactive) | 61.9 µM (inactive) | 42 µM (inactive) | > 100 µM (inactive)
8 | Cc1cc(N(CCC#N)CCC#N)ccc1/C=C1N=C(/C=C/c2ccccc2)OC(=O)N\1 | > 100 µM (inactive) | > 100 µM (inactive) | > 100 µM (inactive) | > 100 µM (inactive) | > 100 µM (inactive) | > 100 µM (inactive) | > 100 µM (inactive) | > 100 µM (inactive) | > 100 µM (inactive) | > 100 µM (inactive) | > 100 µM (inactive) | 91.8 µM (inactive) | > 100 µM | 33 µM (inactive) | 81.5 µM (inactive) | 37.8 µM (inactive) | > 100 µM (inactive) | > 100 µM (inactive)
9 | COc1ccc(-c2nc(N)nc(-c3cc(C)ccc3O)c2Cl)cc1 | 58.9 µM (inactive) | > 100 µM (inactive) | > 100 µM (inactive) | 84.1 µM (inactive) | 64.1 µM (inactive) | 31.8 µM (inactive) | 38.3 µM (inactive) | > 100 µM (inactive) | – | 43.2 µM (inactive) | > 100 µM (inactive) | 37.2 µM (inactive) | > 100 µM | > 100 µM (inactive) | 30.6 µM (inactive) | 45.4 µM (inactive) | > 100 µM (inactive) | 32.7 µM (inactive)
10 | CCO/C=C1\N=C(c2ccccc2Br)OC1=O | > 100 µM (inactive) | > 100 µM (inactive) | > 100 µM (inactive) | > 100 µM (inactive) | > 100 µM (inactive) | > 100 µM (inactive) | > 100 µM (inactive) | > 100 µM (inactive) | > 100 µM (inactive) | > 100 µM (inactive) | > 100 µM (inactive) | > 100 µM (inactive) | > 100 µM | > 100 µM (inactive) | > 100 µM (inactive) | > 100 µM (inactive) | > 100 µM (inactive) | > 100 µM (inactive)
11 | Cn1c2c([N+](=O)[O-])cccc2c(=O)c2c(O)cc3c(c21)C=CC(C)(C)O3 | 25.2 µM (inactive) | 18.4 µM (inactive) | 35.7 µM (inactive) | 86.7 µM (inactive) | 34.8 µM (inactive) | 40.2 µM (inactive) | 36.6 µM (inactive) | 20.7 µM (inactive) | 35.9 µM (inactive) | 29.6 µM (inactive) | 46.5 µM (inactive) | 18.1 µM (inactive) | 20.7 µM | – | – | 32 µM (inactive) | 16.6 µM (inactive) | 54.6 µM (inactive)
12 | CCOc1ccc(NC(=O)CC2SC(Nc3ccc(C)cc3C)=NC2=O)cc1 (stereo unspecified) | > 100 µM (inactive) | 29.9 µM (inactive) | > 100 µM (inactive) | > 100 µM (inactive) | > 100 µM (inactive) | > 100 µM (inactive) | > 100 µM (inactive) | > 100 µM (inactive) | > 100 µM (inactive) | 89.1 µM (inactive) | 85.7 µM (inactive) | > 100 µM (inactive) | > 100 µM | 84.3 µM (inactive) | 48.8 µM (inactive) | > 100 µM (inactive) | 43.8 µM (inactive) | > 100 µM (inactive)
13 | COC(=O)C(C(=O)C(=O)Nc1nnc(S)[nH]1)c1csc(N)n1 (stereo unspecified) | > 100 µM (inactive) | > 100 µM (inactive) | > 100 µM (inactive) | > 100 µM (inactive) | > 100 µM (inactive) | > 100 µM (inactive) | > 100 µM (inactive) | > 100 µM (inactive) | > 100 µM (inactive) | > 100 µM (inactive) | > 100 µM (inactive) | > 100 µM (inactive) | > 100 µM | > 100 µM (inactive) | > 100 µM (inactive) | > 100 µM (inactive) | > 100 µM (inactive) | > 100 µM (inactive)
14 | COc1cc(/C=N\O[Si](C)(C)C(C)(C)C)ccc1O[Si](C)(C)C(C)(C)C | 26.6 µM (inactive) | 56.6 µM (inactive) | 33.7 µM (inactive) | 92.5 µM (inactive) | > 100 µM (inactive) | > 100 µM (inactive) | > 100 µM (inactive) | 24.5 µM (inactive) | 88.9 µM (inactive) | 64.1 µM (inactive) | > 100 µM (inactive) | 36 µM (inactive) | 27.4 µM | – | 22.3 µM (inactive) | 32.4 µM (inactive) | 37.8 µM (inactive) | > 100 µM (inactive)
15 | CCOC(=O)CC1(C(=O)OCC)c2[nH]c3ccccc3c2CCN1Cc1ccccc1 (stereo unspecified) | 18.5 µM (inactive) | – | 20.5 µM (inactive) | 18.6 µM (inactive) | 19.5 µM (inactive) | 17.8 µM (inactive) | 19 µM (inactive) | 13.7 µM (inactive) | 17.9 µM (inactive) | 23.7 µM (inactive) | 17.7 µM (inactive) | 17.7 µM (inactive) | 29.2 µM | 19.1 µM (inactive) | 14.1 µM (inactive) | 16.9 µM (inactive) | 21.6 µM (inactive) | 31.2 µM (inactive)
16 | CN(C)[C@@H]1C(O)=C(C(=O)NCNCCCC(=O)O)C(=O)[C@@]2(O)C(O)=C3C(=O)c4c(O)cccc4[C@@](C)(O)[C@H]3C[C@@H]12 | > 100 µM (inactive) | > 100 µM (inactive) | > 100 µM (inactive) | > 100 µM (inactive) | > 100 µM (inactive) | – | > 100 µM (inactive) | > 100 µM (inactive) | > 100 µM (inactive) | > 100 µM (inactive) | > 100 µM (inactive) | > 100 µM (inactive) | > 100 µM | > 100 µM (inactive) | > 100 µM (inactive) | > 100 µM (inactive) | > 100 µM (inactive) | > 100 µM (inactive)
